Experimental data as given in US6605601B2, “A1 adenosine receptor antagonists” (Biogen, Inc., priority 2000, dated 2003).

Molecular target: T1, rat A1 adenosine receptor (Rattus norvegicus, UniProt P25099)
T1 construct: Membranes were prepared from rat cerebral cortex isolated from freshly euthanized rats; from tissue; host or cells: rat cerebral cortex
T1 sequence (P25099 1-326): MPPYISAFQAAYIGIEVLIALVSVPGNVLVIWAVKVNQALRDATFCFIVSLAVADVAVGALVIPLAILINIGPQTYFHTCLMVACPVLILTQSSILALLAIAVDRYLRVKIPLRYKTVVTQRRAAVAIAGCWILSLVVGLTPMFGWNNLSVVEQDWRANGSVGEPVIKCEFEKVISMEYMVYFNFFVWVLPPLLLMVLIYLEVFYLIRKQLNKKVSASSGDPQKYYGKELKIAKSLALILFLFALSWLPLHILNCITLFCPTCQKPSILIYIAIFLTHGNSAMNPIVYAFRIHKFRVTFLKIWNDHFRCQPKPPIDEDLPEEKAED
Assay: Radioligand ([3H]DPCPX) competition binding assay on rat A1 adenosine receptor (rat cerebral cortex membranes)
Settings: for Ki: [3H]DPCPX 1 nM, Cheng-Prusoff from IC50; for % specific radioligand binding remaining at 1 µM: 2.5 h, % of total specific radioligand binding remaining at 1 μM of competing compound
Protocol: For some of these compounds, the Ki values for rat and human adenosine A1 receptors were determined according to the following binding assay protocol.
Rat A1 Receptor: Membranes were prepared from rat cerebral cortex isolated from freshly euthanized rats. Tissues were homogenized in buffer A (10 mM EDTA, 10 mM Na-HEPES, pH 7.4) supplemented with protease inhibitors (10 μg/ml benzamidine, 100 μM PMSF, and 2 μg/ml each of aprotinin, pepstatin and leupeptin), and centrifuged at 20,000×g for 20 min. Pellets were resuspended and washed twice with buffer HE (10 mM Na-HEPES, 1 mM EDTA, pH 7.4, plus protease inhibitors). Final pellets were resuspended in buffer HE, supplemented with 10% (w/v) sucrose and protease inhibitors, and frozen in aliquots at −80° C. Protein concentrations were measured using BCA protein assay kit (Pierce).
Membranes (50 μg membrane protein for rat A1ARs, and 25 μg of CHO-K1 membrane protein for human A1ARs), radioligands and varying concentrations of competing ligands were incubated in triplicates in 0.1 ml buffer HE plus 2 units/ml adenosine deaminase for 2.5 h at 21° C. Radioligand [^3H]DPCPX (112 Ci/mmol from NEN, final concentration: 1 nM) was used for competition binding assays on A1ARs. Nonspecific binding was measured in the presence of 10 μM BG9719. Binding assays were terminated by filtration over Whatman GF/C glass fiber filters using a BRANDEL cell harvester. Filters were rinsed three times with 3-4 ml ice-cold 10 mM Tris-HCl, pH 7.4 and 5 mM MgCl2 at 4° C. Filter paper was transferred to a vial, and 3 ml of scintillation cocktail ScintiVerseII (Fisher)was added. Radioactivity was counted in a Wallac β-counter.
For K1 Determinations: Competition binding data were fit to a single-site binding model and plotted using Prizm GraphPad.
For % Binding: For one-point binding assays, data were presented as % of total specific binding at 1 μM of competing compound: % of total =100* (Specific binding with 1 μM of competing compound/total specific binding). % binding represents the amount of bound radioligand remaining in the presence of 1 μM of competing antagonist.

| SMILES | Ki [nM] | % specific radioligand binding remaining at 1 µM [%] |
| --- | --- | --- |
| CCCN1C(=O)N2C[C@@H](C(C)C)N=C2c2[nH]c(C34CCC(O)(CC3)CC4)nc21 [Compound 1, 2-(4-Hydroxy-bicyclo[2.2.2]oct-1-yl)-7-isopropyl-4-propyl-1,4,6,7-tetrahydro-1,3,4,5a,8-pentaaza-as-indacen-5-one] | 4.4 | – |
| CCCN1C(=O)N2C[C@@H](C(C)C)N=C2c2[nH]c(C34CCC(CCC(=O)O)(CC3)CC4)nc21 [Compound 5, 3-[4-(7-Isopropyl-5-oxo-4-propyl-4,5,6,7-tetrahydro-1H-1,3,4,5a,8-pentaaza-as-indacen-2-yl)-bicyclo[2.2.2]oct-1-yl]-propionic acid] | 10.5 | 1.9 |
| CCCN1C(=O)N2C[C@@H](C(C)CC)N=C2c2[nH]c(C34CCC(O)(CC3)CC4)nc21 (stereo partly shown) [Compound 8] | 14.1 | 1 |
| CCCN1C(=O)N2C[C@@H](CC)N=C2c2[nH]c(C34CCC(CC3)CC4)nc21 [Compound 9] | 26.7 | 0.1 |
| CCCN1C(=O)N2C(=NC[C@@H]2C)c2[nH]c(C34CCC(O)(CC3)CC4)nc21 [Compound 12] | 51.3 | 8.6 |
| CCCN1C(=O)N2C[C@@H](c3ccccc3)N=C2c2[nH]c(C34CCC(O)(CC3)CC4)nc21 [Compound 13] | 68.3 | – |
| CCCN1C(=O)N2C(=NC[C@H]2C)c2[nH]c(C34CCC(O)(CC3)CC4)nc21 [Compound 14] | 68.5 | 7.8 |
| CCCN1C(=O)N2C[C@H](C(C)CC)N=C2c2[nH]c(C34CCC(O)(CC3)CC4)nc21 (stereo partly shown) [Compound 15] | 93 | 7.7 |
| CCCN1C(=O)N2C[C@@H](C(C)(C)C)N=C2c2[nH]c(C34CCC(O)(CC3)CC4)nc21 [Compound 16] | 155 | – |
| CCCN1C(=O)N2C[C@@H](Cc3ccccc3)N=C2c2[nH]c(C34CCC(O)(CC3)CC4)nc21 [Compound 18] | 708 | – |
| CCCN1C(=O)N2CCCN=C2c2[nH]c(C34CCC(O)(CC3)CC4)nc21 [Compound 20] | – | 52.7 |
| CCCN1C(=O)N2CCN=C2c2[nH]c(C34CCC(O)(CC3)CC4)nc21 [Compound 21] | – | 12.2 |
| CCCN1C(=O)N2CCCCN=C2c2[nH]c(C34CCC(O)(CC3)CC4)nc21 [Compound 27] | – | 16.3 |
| CCCN1C(=O)N2C[C@@H](Cc3ccc(O)cc3)N=C2c2[nH]c(C34CCC(O)(CC3)CC4)nc21 [Compound 28] | – | 36.3 |
| CCCN1C(=O)N2CC[C@@H](C)N=C2c2[nH]c(C34CCC(O)(CC3)CC4)nc21 [Compound 31] | – | 40 |

Results, then the compound that gave them:

| Ki [nM] | % specific radioligand binding remaining at 1 µM [%] | SMILES |
| --- | --- | --- |
| 5.75 | – | CCCN1C(=O)N2C[C@@H](CC)N=C2c2[nH]c(C34CCC(O)(CC3)CC4)nc21 [Compound 2, 7-Ethyl-2-(4-hydroxy-bicyclo[2.2.2]oct-1-yl)-4-propyl-1,4,6,7-tetrahydro-1,3,4,5a,8-pentaaza-as-indacen-5-one] |
| 8.38 | – | CCCN1C(=O)N2C[C@@H](CC)N=C2c2[nH]c(C34CCC(CCC(=O)O)(CC3)CC4)nc21 [Compound 3, 3-[4-(7-Ethyl-5-oxo-4-propyl-4,5,6,7-tetrahydro-1H-1,3,4,5a,8-pentaaza-as-indacen-2-yl)-bicyclo[2.2.2]oct-1-yl]-propionic acid] |
| 9.92 | – | CCCN1C(=O)N2C[C@@H](C)N=C2c2[nH]c(C34CCC(O)(CC3)CC4)nc21 [Compound 4, 2-(4-Hydroxy-bicyclo[2.2.2]oct-1-yl)-7-methyl-4-propyl-1,4,6,7-tetrahydro-1,3,4,5a,8-pentaaza-as-indacen-5-one] |
| – | 2.6 | CCCN1C(=O)N2CCN=C2c2[nH]c(C34CCC(C(=O)O)(CC3)CC4)nc21 [Compound 6, 4-(5-Oxo-4-propyl-4,5,6,7-tetrahydro-1H-1,3,4,5a,8-pentaaza-as-indacen-2-yl)-bicyclo[2.2.2]octane-l-carboxylic acid] |
| 13.7 | 2.5 | CCCN1C(=O)N2C[C@@H](C)N=C2c2[nH]c(C34CCC(CCC(=O)O)(CC3)CC4)nc21 [Compound 7] |
| 40.2 | 6.2 | CCCN1C(=O)N2C[C@@H](CC)N=C2c2[nH]c(C34CCC(C(=O)O)(CC3)CC4)nc21 [Compound 10] |
| 43.2 | 3.7 | CCC[C@@H]1CN2C(=O)N(CCC)c3nc(C45CCC(O)(CC4)CC5)[nH]c3C2=N1 [Compound 11] |
| 167 | – | CCCN1C(=O)N2C[C@@H](CC(C)C)N=C2c2[nH]c(C34CCC(O)(CC3)CC4)nc21 [Compound 17] |
| – | 18.1 | CCCC[C@@H]1CN2C(=O)N(CCC)c3nc(C45CCC(O)(CC4)CC5)[nH]c3C2=N1 [Compound 19] |
| – | 24 | CCCN1C(=O)N2C[C@@H](C)N=C2c2[nH]c(C34CCC(C(=O)O)(CC3)CC4)nc21 [Compound 22] |
| – | 22.8 | CCC[C@@H]1CN2C(=O)N(CCC)c3nc(C45CCC(C(=O)O)(CC4)CC5)[nH]c3C2=N1 [Compound 23] |
| – | 11 | CCCN1C(=O)N2C[C@H](CC)N=C2c2[nH]c(C34CCC(O)(CC3)CC4)nc21 [Compound 24] |
| – | 46.7 | CCCN1C(=O)N2C[C@@H](C(C)C)N=C2c2[nH]c(C34CCC(C(=O)O)(CC3)CC4)nc21 [Compound 25] |
| – | 41.1 | CCCN1C(=O)N2C[C@H](CC)N=C2c2[nH]c(C34CCC(C(=O)O)(CC3)CC4)nc21 [Compound 26] |
| – | 81.8 | CCCN1C(=O)N2CCCN=C2c2[nH]c(C34CCC(C(=O)O)(CC3)CC4)nc21 [Compound 29] |
| – | 71 | CCCN1C(=O)N2CCCCN=C2c2[nH]c(C34CCC(C(=O)O)(CC3)CC4)nc21 [Compound 30] |
